Reference: patent US9169482B2, “Method for synthesizing cDNA” (TAKARA BIO INC., priority 2010, dated 2015)

Target: T1, DNaseI (Bos taurus, UniProt P00639)
T1 construct: purchased TAKARA BIO INC
Assay: Degradation of mouse genomic DNA with DNaseI in reaction solutions of Table 3, agarose gel electrophoresis (Example 2)
Assay type: biochemical
Details: 5 U DNaseI, 200 ng mouse genomic DNA
Description: In order to construct a reaction composition completely inhibiting endoDNase activity, six kinds of 20 μL-reaction solutions (Reaction Solutions 1 to 6) containing 5 U DNaseI (TAKARA BIO INC.), 200 ng mouse genomic DNA, and the components as listed in Table 3 were prepared. In addition, six kinds of 20 μL-reaction solutions having the same compositions except that DNaseI was not contained were prepared. These reaction solutions were incubated at 37° C. for 15 minutes, and thereafter incubated at 85° C. for 5 seconds. Next, each of the reaction solutions was subjected to agarose gel electrophoresis, thereby confirming degradation of mouse genomic DNA with DNaseI.
It could be confirmed from this matter that DNaseI activity was inhibited in Reaction Solutions 3 and 4. […] It is shown from this matter that adjustment of the Mg concentration can further inhibit DNaseI activity other than the addition of KCl and (NH4)2SO4 or an increase in the DTT concentration.

T1 sequence (P00639 23-282): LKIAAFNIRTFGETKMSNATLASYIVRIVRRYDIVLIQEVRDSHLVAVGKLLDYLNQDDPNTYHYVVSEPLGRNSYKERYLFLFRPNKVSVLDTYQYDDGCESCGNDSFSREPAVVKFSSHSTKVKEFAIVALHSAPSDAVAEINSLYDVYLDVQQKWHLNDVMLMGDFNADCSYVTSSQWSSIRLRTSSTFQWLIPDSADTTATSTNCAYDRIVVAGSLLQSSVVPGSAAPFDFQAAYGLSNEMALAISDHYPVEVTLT

SMILES: N.N.O=S(=O)(O)O [(NH4)2SO4, ammonium sulfate]
- Inhibition of DNaseI activity: inhibited DNaseI activity in a concentration-dependent manner
